Data: patent US12213977B2, “Methods and compositions for treating melanoma” (THE REGENTS OF THE UNIVERSITY OF CALIFORNIA, priority 2017, dated 2025)
Entries after “also recorded” stand apart in the source; their conditions may differ. Where a SMILES comes first, the peptide text is derived from it. The star is where a group is joined. Cbz = O=C(OCc1ccccc1)*; CH2F = FC*

Assays:
melanoma cell lines [1] = test: CTRP pharmacogenomics drug sensitivity (AUC) across melanoma cell lines grouped by predicted differentiation subtype; assay type: cell-based; conditions: for specificity of cell death-inducing compound for dedifferentiated melanoma cells: CTRP drug sensitivity profiles by subtype; for sensitivity (CTRP AUC) with increased dedifferentiation status: melanoma cell lines by predicted subtype, ANOVA P<0.01, irrespective of mutation status
Description: Through the prediction of subtypes from the CCLE and GDSC dataset, the inventors utilized the matching drug sensitivity profiles available from the pharmacogenomics-based Cancer Therapeutics Response Portal (CTRP) (Seashore-Ludlow et al., 2015). […] These compounds are erastin, (1S,3R)-RSL3, ML162, and M210 (FIG. 3B).
Dataset from Hoek et al of melanoma cell lines was obtained from GSE4845 and batch normalized using ComBat from the R sva package. Dataset from Mica et al for the melanocyte differentiation stage analysis was obtained from GSE45227. Gene expression profiles from samples representing the growth conditions for each specified stage of differentiation based on the original manuscript was used for analysis (day 0 embryonic stem cell, day 6 neural crest cell, day 11 melanoblast, and day 25 melanocyte). Primary melanocyte expression profiles (adult and neonatal) were used as control. Cell line expression profiles from the CCLE and GSDC databases were downloaded from the respective resource websites (http://www.broadinstitute.org/ccle; http://www.cancerrxgene.org/downloads). For each dataset, microarray probes were collapsed to gene symbol to the maximum average probe. To have a gene list compatible for all datasets used, the inventors took an intersection of genes from both RNASeq and microarray chip platforms, resulting in 10,545 genes.
Principal component analysis (PCA) was performed on mean centered data and all statistical analyses were performed in R (http://www.R-project.org/). Projections were calculated by matrix multiplication of the centered data to be projected using the rotation matrix determined from the PCA of the original source data. ANOVA p-values were determined using the non-parametric Kruskal-Wallis test at a significance threshold of 0.05. Reported p-values between pairs of subtypes were determined using Dunn post-hoc testing with multiple hypothesis correction using the Benjamini & Hochberg method. Heatmaps and figures were generated using pheatmap and ggplot2 R packages.

[2] = system: M229, M397 and M249 melanoma cell lines; test: Crystal violet staining (clonogenic) assays of long-term or cytokine combination treatment; assay type: cell-based, human
Protocol: (§1) Human melanoma cell lines of the M series were established from patient's biopsies under UCLA IRB approval #11-003254 as previously described (Søndergaard et al., 2010). Cells were cultured in RPMI 1640 with L-glutamine, 10% fetal bovine serum, and 1% penicillin, streptomycin and fungizone in a water-saturated incubator at 37° C. with 5% CO2. Cells were maintained and tested for mycoplasma, and regularly authenticated to their early passages using GenePrint® 10 System (Promega). Presence of mutations in the genes of interest were checked by OncoMap 3 or lontrone, and was confirmed by PCR and Sanger sequencing as previously described (Wong et al., 2014). Vemurafenib (PLX 4032), erastin, Z-VAD-FMK, R428 and piperlongumine were all purchased from Selleck Chemicals. Deferoxamine was obtained from Sigma-Aldrich. Staurosporine was obtained from Cayman Chemicals. Trolox was obtained from Acros Organics. Recombinant TNFα and IFNγ were both obtained from Peprotech. For the BRAFi timecourse study, M229 was treated with vemurafenib or DMSO for the indicated timepoints at twice the 50% inhibition concentration (500 nM). For the crystal violet assays, cells for seeded at low density in 6-well plates. The next day media was replaced by drug media and replenished every 2-3 days. Plates were stained with crystal violet solution (1% crystal violet, 10% methanol). Control wells were grown for 1 week and stained when 100% confluent.

[3] = system: human melanoma cell lines of the M series; test: Cell viability dose-response (CellTiter-Glo) across M series melanoma cell lines; assay type: cell-based
Protocol: as §1
All cell viability assays were assayed in 96-well format with 5000 cells seeded per well. Dose-response curves were assayed using CellTiter-Glo luminescent cell viability assay (Promega, G7572). For all other measurements of viable cells, a fluorescent resazurin-based (Sigma-Aldrich, R7017) assay (AlamarBlue) was used with fluorescence measured at 570/600 ex/em wavelength. Percentage cell viability is reported as a percentage relative to the negative control treatment. Measurement of dead cells per time was measured by incubating treated cells with the IncuCyte Cytotox Red Reagent and imaging with IncuCyte ZOOM Live-Cell Imaging System (Essen BioScience). […]

[4] = system: undifferentiated signature cell lines M296, M410 M229R, and M238R; test: Cell death and rescue assays (resazurin viability, IncuCyte Cytotox Red, trypan blue exclusion); assay type: cell-based, human
Protocol: All cell viability assays were assayed in 96-well format with 5000 cells seeded per well. Dose-response curves were assayed using CellTiter-Glo luminescent cell viability assay (Promega, G7572). For all other measurements of viable cells, a fluorescent resazurin-based (Sigma-Aldrich, R7017) assay (AlamarBlue) was used with fluorescence measured at 570/600 ex/em wavelength. Percentage cell viability is reported as a percentage relative to the negative control treatment. Measurement of dead cells per time was measured by incubating treated cells with the IncuCyte Cytotox Red Reagent and imaging with IncuCyte ZOOM Live-Cell Imaging System (Essen BioScience). Trypan blue exclusion was also used for cell death assays.

melanoma cell lines [5] = test: Immunoblot of differentiation biomarkers (AXL, NGFR, MITF, MART-1) and pERK; assay type: cell-based, human; conditions: IFNγ=100 U/mL, TNFα=1000 U/mL; M229, M397, M249
Protocol: Cells were lysed in modified RIPA buffer (50 mM Tris-HCl (pH 7.5), […], 10 mM β-glycerophosphate, 1% NP-40, 0.25% sodium deoxycholate, 10 mM sodium pyrophosphate, 30 mM sodium fluoride, 1 mM EDTA, 1 mM vanadate, 20 μg/ml aprotinin, 20 μg/ml leupeptin, and 1 mM phenylmethylsulfonyl fluoride). Whole-cell lysates were resolved by SDS-PAGE on TruPAGE 4-15% gradient gels (Sigma-Aldrich) and blotted onto nitrocellulose membranes. Membranes were blocked overnight with 5% milk and then incubated sequentially with primary and then IRDye-conjugated secondary antibodies (Li-Cor). Blots were imaged using the Odyssey Infrared Imaging System (Li-Cor). Primary antibodies used for Western blot analysis were MITF (DGG7V, CST), MART-1 (A103, SCBT), and AXL (C89E7, CST).

| Compound | specificity of cell death-inducing compound for dedifferentiated melanoma cells (melanoma cell lines [1]) | further results |
| --- | --- | --- |
| NC(=O)Nc1cc(-c2cccc(F)c2)sc1C(=O)N[C@H]1CCCNC1 [AZD7762] | specificity for dedifferentiated melanoma cells |  |
| O=c1c2ccccc2nc(/C=C/c2cccnc2)n1Cc1ccccc1 [B02] | specificity for dedifferentiated melanoma cells |  |
| COc1ccc(C2C(C(=O)Nc3ccccc3)=C(C)N=c3sc(=Cc4cn(Cc5ccccc5)c5ccccc45)c(=O)n32)cc1 (stereo not shown) [BCL-LZH-4] | specificity for dedifferentiated melanoma cells |  |
| Cc1c[nH]c(-c2cnc(NCCNc3ccc(C#N)cn3)nc2-c2ccc(Cl)cc2Cl)n1 [CHIR-99021] | specificity for dedifferentiated melanoma cells |  |
| O=C(c1ccc(/C=C/c2n[nH]c3ccccc23)cc1)N1CCNCC1 [KW-2449] | specificity for dedifferentiated melanoma cells |  |
| COc1cc2nccc(Oc3ccc(NC(=O)Nc4ccc(F)cc4F)c(F)c3)c2cc1OC [Ki8751] | specificity for dedifferentiated melanoma cells |  |
| Cc1onc(C(=O)N2CCN(C(c3ccc(Cl)cc3)c3ccc(Cl)cc3)CC2)c1[N+](=O)[O-] [M210, ML210] |  | sensitivity (CTRP AUC) with increased dedifferentiation status (melanoma cell lines [1]): increased sensitivity |
| COc1ccc(N(C(=O)CCl)C(C(=O)NCCc2ccccc2)c2cccs2)cc1Cl (stereo not shown) [ML162] |  | sensitivity (CTRP AUC) with increased dedifferentiation status (melanoma cell lines [1]): increased sensitivity |
| COc1cc(N2CCC(N3CCN(C)CC3)CC2)ccc1Nc1ncc(Cl)c(Nc2ccccc2S(=O)(=O)C(C)C)n1 [NVP-TAE684] | specificity for dedifferentiated melanoma cells |  |
| COC(=O)c1ccc([C@H]2c3[nH]c4ccccc4c3C[C@H](C(=O)OC)N2C(=O)CCl)cc1 [RSL3, (1S,3R)-RSL3] |  | sensitivity upon IFNγ cytokine treatment ([2]; M249, higher doses (5 μM erastin, 500 nM RSL3)): increased sensitivity; long-term persisting cells ([2]; combined with vemurafenib (1 μM), 16-24 days, M229, M397, M249): substantial decrease; cell death compared to cytokine-only or untreated cells ([2]; in the presence of TNFα or IFNγ, 7 days): increased cell death; sensitivity in cell lines with vemurafenib-induced dedifferentiation ([3]; acquired resistance lines (P vs R) or long-term adaptive resistance (44 days)): increased sensitivity; sensitivity with dedifferentiation ([3]; across M series melanoma cell lines): increased sensitivity; sensitivity (CTRP AUC) with increased dedifferentiation status (melanoma cell lines [1]): increased sensitivity |
| Cn1cc(-c2ccc3nnc(Sc4ccc5ncccc5c4)n3n2)cn1 [SGX-523] | specificity for dedifferentiated melanoma cells |  |
| O=C1c2ccccc2-c2nc3nonc3nc21 [SMER-3] | specificity for dedifferentiated melanoma cells |  |
| CCc1c2c(nc3ccc(O)cc13)-c1cc3c(c(=O)n1C2)COC(=O)[C@]3(O)CC [SN-38] | specificity for dedifferentiated melanoma cells |  |
| CC1(C)CC(=O)c2c(C(F)(F)F)nn(-c3ccc(C(N)=O)c(N[C@H]4CC[C@H](O)CC4)c3)c2C1 [SNX-2112] | specificity for dedifferentiated melanoma cells |  |
| CC(C)[C@H](O)C(=O)N[C@@H](C)C(=O)N[C@@H]1C(=O)N(C)CCc2ccccc21 [Semagacestat] | specificity for dedifferentiated melanoma cells |  |
| Cc1cnc(Nc2ccc(OCCN3CCCC3)cc2)nc1Nc1cccc(S(=O)(=O)NC(C)(C)C)c1 [TG-101348] | specificity for dedifferentiated melanoma cells |  |
| Cc1c(C)c2c(c(C)c1O)CCC(C)(C(=O)O)O2 (stereo not shown) [Trolox] |  | rescue of erastin-induced decrease in cell viability ([4]; 100 μM DFO or 150 μM Trolox with erastin): almost completely rescued |
| COC(=O)C[C@H](NC(=O)[C@H](C)NC(=O)[C@@H](NC(=O)OCc1ccccc1)C(C)C)C(=O)CF [Z-VAD-FMK] (Cbz-Val-Ala-Asp(OMe)-CH2F) |  | rescue of apoptosis induced by staurosporine ([4]; trypan blue, 24 hr 1 μM staurosporine, Z-VAD-FMK pre-treatment 1 hr, positive control): could rescue; rescue of death induced by erastin treatment ([4]; trypan blue, 24 hr 5 μM erastin, Z-VAD-FMK pre-treatment 1 hr): could not rescue |
| Cc1c(N)nc([C@H](CC(N)=O)NC[C@H](N)C(N)=O)nc1C(=O)N[C@H](C(=O)N[C@H](C)[C@@H](O)[C@H](C)C(=O)N[C@H](C(=O)NCCc1nc(-c2nc(C(=O)NCCC[S+](C)C)cs2)cs1)[C@@H](C)O)[C@@H](O[C@@H]1O[C@@H](CO)[C@@H](O)[C@H](O)[C@@H]1O[C@H]1O[C@H](CO)[C@@H](O)[C@H](OC(N)=O)[C@@H]1O)c1c[nH]cn1.[Br-] [bleomycin A2] | specificity for dedifferentiated melanoma cells |  |
| C=CC(=O)Nc1cc2c(Nc3ccc(F)c(Cl)c3)ncnc2cc1OCCCN1CCOCC1 [canertinib] | specificity for dedifferentiated melanoma cells |  |
| C=C1[C@@H](C)[C@H]2[C@H](Cc3ccccc3)NC(=O)[C@]23OC(=O)/C=C/[C@H](O)CCC[C@@H](C)C/C=C/[C@H]3[C@@H]1O [cytochalasin B] | specificity for dedifferentiated melanoma cells |  |
| COC(=O)c1ccc2c(c1)NC(=O)/C2=C(\Nc1ccc(N(C)C(=O)CN2CCN(C)CC2)cc1)c1ccccc1 [nintedanib] | specificity for dedifferentiated melanoma cells |  |
| O=C(c1cc(Cc2n[nH]c(=O)c3ccccc23)ccc1F)N1CCN(C(=O)C2CC2)CC1 [olaparib] | specificity for dedifferentiated melanoma cells |  |
| COc1cc(/C=C/C(=O)N2CCC=CC2=O)cc(OC)c1OC [piperlongumine] |  | differentiation stage-associated trend in sensitivity ([3]; among subtypes and vemurafenib resistant lines): does not show any differentiation stage-associated trend; also recorded: no difference in sensitivity |
| COc1cc(Nc2ncc(F)c(Nc3ccc4c(n3)NC(=O)C(C)(C)O4)n2)cc(OC)c1OC [tamatinib] | specificity for dedifferentiated melanoma cells |  |
| AZD4547 | specificity for dedifferentiated melanoma cells |  |
| ML334 diastereomer | specificity for dedifferentiated melanoma cells |  |
| TNFα |  | differentiation state (up-regulation of AXL, decreased MITF or MART-1) (melanoma cell lines [5]): induced de-differentiation |
